Results as given in US7524975B2, “Peroxisome proliferator activated receptor ligand and process for producing the same” (Kaneka Corporation, priority 2001, dated 2009).

Assays:
[1] = tested on: KK-Ay mouse; assay: Effect on type 2 diabetes mellitus model mouse: blood glucose level during mixed-feed administration; type: in vivo; conditions: KK-Ay mice; for Blood glucose level: means±SE, n=5
Procedure: Using a KK-Ay mouse which is genetically obese and type 2 diabetic animal, the effect of Compound 2 on diabetes mellitus was evaluated.
Compound 2 was prepared in the same procedure as in Example 1 and added to the basal diet such that the content of Compound 2 in a final feed was 0.1%. On the day before administration and 4 days after administration, a small amount of blood was collected from a mouse tail vein, and measured for its blood glucose level by a simple blood glucose measuring instrument Glutest Ace (Sanwa Kagaku Kenkyusho Co., Ltd.).

[2] = target: T1, mouse PPARγ ligand-binding site (Mus musculus, UniProt P37238); assay: Measurement of PPARγ ligand activity (GAL4 chimera luciferase reporter in CV-1 cells); type: cell-based; conditions: for PPARγ ligand activity: CV-1 cells, 24 hours, specific activity relative to untreated control (DMSO) = 1.00; for PPARγ ligand activity compared with positive control troglitazone (in words): compared with 0.5 μM troglitazone
T1 construct: expressed in transfected cells; host or cells: CV-1 cells (African green monkey kidney)
T1 sequence (P37238 174-475 isoform P37238-2): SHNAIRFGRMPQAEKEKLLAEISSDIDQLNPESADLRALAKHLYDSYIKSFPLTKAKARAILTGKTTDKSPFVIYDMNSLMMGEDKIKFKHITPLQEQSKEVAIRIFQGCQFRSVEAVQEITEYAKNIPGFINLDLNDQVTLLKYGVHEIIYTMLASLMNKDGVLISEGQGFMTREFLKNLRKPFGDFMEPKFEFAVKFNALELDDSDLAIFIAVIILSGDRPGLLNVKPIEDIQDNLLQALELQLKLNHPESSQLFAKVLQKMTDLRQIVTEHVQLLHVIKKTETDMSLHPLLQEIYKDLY
Procedure: CV-1 cells (cultured cells derived from the kidney of a male African green monkey) were inoculated on a 96-well culture plate in a concentration of 6×10^3 cells/well and incubated at 37° C. in 5% CO2 for 24 hours. The medium used was DMEM (Dulbecco's Modified Eagle Medium: GIBCO) containing 10% FBS (fetal bovine serum), 10 ml/L penicillin and streptomycin solution (containing 5000 IU/ml and 5,000 μg/ml, respectively: GIBCO) and 37 mg/L ascorbic acid (Wako Pure Chemical Industries, Ltd.). […] 4xUASg-luc is a reporter plasmid comprising four GAL4 response sequences (UASg) integrated into a region upstream of a luciferase gene. At about 24 hours after transfection, the medium was exchanged with a sample-containing medium, and the cells were cultured for 24 hours (n=4). The sample-containing medium was prepared by dissolving a sample in dimethyl sulfoxide (DMSO) in an amount of 1/1000 based on the medium, while for the untreated control, DMSO in an amount of 1/1000 based on the medium was used in place of the sample. After the cells were washed with a Ca- and Mg-containing phosphate buffered physiological saline (PBS+), LucLite (Packard) was added thereto, and the intensity of luciferase luminescence was measured with a TopCount microplate scintillation/luminescence counter (Packard).
As the control group, pM (plasmid from which the PPARγ ligand-binding site gene was removed) was measured in place of pM-mPPARγ in the same manner as for the measurement group. For each sample, the ratio (measurement group/control group) of the average luminescence intensity of the measurement group (n=4) to that of the control group was calculated, and the specific activity relative to the activity of the untreated control was regarded as the PPARγ ligand activity of the sample.

[3] = tested on: KK-Ay mouse; assay: Glucose tolerance test (sucrose loading) in KK-Ay mice; type: in vivo; conditions: for Blood glucose level: oral pioglitazone 20 mg/kg or Compound 2 100 mg/kg
Procedure: After the mixed feed was given for 1 week, the mice were fasted overnight and then subjected to a glucose tolerance test. […] To the non-additive group (control group), 0.5% CMC-Na solution was administered in an amount of 5 ml/kg. At a time of 30 minutes after administration, the mice were loaded with 2 g/kg of 40% sucrose solution. Before the sugar loading and at a time of 30 minutes, 1 hour and 2 hours after the sugar loading, a small amount of blood was collected from a mouse tail vein, and measured for its blood glucose level by a simple blood glucose measuring instrument Glutest Ace (Sanwa Kagaku Kenkyusho Co., Ltd.).

[4] = 4 days after administration, in feed: pioglitazone 0.02%, Compound 2 0.1%
[5] = 30 minutes after sugar loading (2 g/kg sucrose)
[6] = 1 hour after sugar loading (2 g/kg sucrose)
[7] = before sugar loading, fasted KK-Ay mice after 1 week mixed feed

Row | PPARγ ligand activity ([2]; added concentration 2 μg/ml) | PPARγ ligand activity ([2]; added concentration 5 μg/ml) | PPARγ ligand activity ([2]; added concentration 10 μg/ml) | Compound | also measured
1 | 2.81 | 3.34 | 3.67 | COc1cc2oc(=O)c(-c3ccc(O)cc3O)cc2c(OC)c1CC=C(C)C [Compound 2, Glycyrin] | Blood glucose level [1, 4]: 278 ± 14 mg/dL; Blood glucose levels on the fourth day after the administration (in words) ([1]; 0.1% in feed): statistically significantly reduced; Blood glucose level ([1]; before administration): 474 ± 27 mg/dL; Blood glucose level [3, 5]: 225 ± 27 mg/dL; Blood glucose level [3, 6]: 129 ± 8 mg/dL; Blood glucose level ([3]; 2 hour after sugar loading (2 g/kg sucrose)): 100 ± 3 mg/dL; Increase in blood glucose levels after the sugar loading (in words) ([3]; KK-Ay mice, 100 mg/kg oral): statistically significantly inhibited a rapid increase in blood glucose levels after the sugar loading; Blood glucose level [3, 7]: 78 ± 4 mg/dL
2 |  |  |  | CCc1ccc(CCOc2ccc(CC3SC(=O)NC3=O)cc2)nc1 (stereo not shown) [Pioglitazone, pioglitazone, reference compound] | Blood glucose level [1, 4]: 191 ± 6 mg/dL; Blood glucose level ([1]; before administration): 486 ± 26 mg/dL; Blood glucose level [3, 5]: 158 ± 11 mg/dL; Blood glucose level [3, 6]: 136 ± 5 mg/dL; Blood glucose level [3, 7]: 89 ± 3 mg/dL
3 | 1.27 | 1.93 | 1.61 | COc1c(/C=C/C(=O)c2ccc(O)cc2)ccc(O)c1O [Compound 25, Licochalcone B] | PPARγ ligand activity compared with positive control troglitazone (in words) [2]: slightly weaker than that of a positive control containing 0.5 μM troglitazone
4 | 2.60 | 3.53 | 3.02 | COc1cc2c(c(O)c1CC=C(C)C)C(=O)C(c1ccc(O)cc1O)CO2 (stereo not shown) [Compound 8, Glyasperin B] | 
5 | 2.56 | 3.64 | 5.84 | COc1c(-c2ccc(O)cc2)oc2cc(O)c(CC=C(C)C)c(O)c2c1=O [Compound 16, Topazolin] | 
6 | 1.67 | 2.53 | 3.75 | CC(C)=CCc1c(O)cc(O)c2c(=O)c(-c3ccc(O)cc3)coc12 [Compound 10, Lupiwighteone] | 
7 | 2.03 | 2.79 | 3.82 | COc1c(CC=C(C)C)c(O)cc2oc(=O)c(-c3ccc(O)cc3O)cc12 [Compound 1, Glycycoumarin] | 
8 | 1.04 | 1.45 | 1.94 | CC1(C)C=Cc2c(ccc(C3COc4c(ccc5c4C=CC(C)(C)O5)C3)c2O)O1 (stereo not shown) [Compound 20, Hispaglabridin B] | PPARγ ligand activity compared with positive control troglitazone (in words) [2]: slightly weaker than that of a positive control containing 0.5 μM troglitazone
9 | 2.95 | 3.72 | 4.00 | COc1cc2c(c(OC)c1CC=C(C)C)C=C(c1ccc(O)cc1O)CO2 [Compound 4, 3-(2′,4′-dihydroxyphenyl)-6-(3″,3″-dimethylallyl)-5,7-dimethoxy-2H-chromene] | 
10 | 1.85 | 3.48 | 3.74 | CC(C)=CCc1cc([C@@H]2CC(=O)c3ccc(O)c(CC=C(C)C)c3O2)ccc1O [Compound 23, Glabrol] | 
11 | 1.45 | 2.35 | 2.49 | COc1cc(O)ccc1/C=C/C(=O)c1ccc(O)cc1 [Compound 5, Echinatin] | 
12 | 0.96 | 1.48 | 2.04 | CC(C)=CCc1cc(C(=O)CC(=O)c2cc3c(cc2O)OC(C)(C)C=C3)ccc1O [Compound 28, Glycyrdione C] | PPARγ ligand activity compared with positive control troglitazone (in words) [2]: slightly weaker than that of a positive control containing 0.5 μM troglitazone
13 | 1.73 | 2.50 | 3.82 | CC(C)=CCc1cc(-c2oc3cc(O)cc(O)c3c(=O)c2O)ccc1O [Compound 6, Isolicoflavonol] | 

Row | Compound | PPARγ ligand activity ([2]; added concentration 2 μg/ml) | PPARγ ligand activity ([2]; added concentration 5 μg/ml) | PPARγ ligand activity ([2]; added concentration 10 μg/ml) | also measured
14 | O=C(/C=C/c1ccc(O)cc1)c1ccc(O)cc1O [Compound 13, Isoliquiritigenin] | 1.47 | 2.71 | 3.39 | 
